# Data taken from patent US20160046618A1, “Cyclopropyl Fused Thiazin-2-Amine Compounds as Beta-Secretase Inhibitors and Methods of Use” (AMGEN INC., priority 2014, published 2016).
# Read-outs that look alike come from different tables or passages of the source.
# Legend:
# human recombinant BACE2 = human recombinant BACE2 (Homo sapiens (Human), UniProt Q9Y5Z0); assay: In vitro enzymatic BACE2 FRET assay; assay type: biochemical; settings: read-out: IC50 IP (μM) BACE2 enzyme
# Procedure, shortened: (§1)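 Fluorescence from cleavage of a quenched peptide spanning the BACE site (50 nM) was read at 488 nm excitation, 590 nm emission. Purified enzyme (Ni-NTA) and compound reacted for one hour before a Tris stop shifted pH to neutral.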
# [1] = test system: Aβ40 in conditioned medium of cells stably expressing Amyloid Precursor Protein (APP); assay: In vitro BACE-1 cell-based assay (Aβ40 sandwich ELISA); settings: read-out: IC50 IP (μM) BACE1 cell
# Procedure, shortened: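 Aβ40 in supernatants measured by time-resolved fluorescence sandwich ELISA, with pAb40 as capture and biotin-6E10 as detector antibody, each incubated at 4 °C.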
# Recombinant Cat D = Recombinant Cat D (Homo sapiens (Human), UniProt P07339); assay: In vitro enzymatic Cathepsin D (Cat D) FRET assay; assay type: biochemical; settings: read-out: IC50 IP (μM) CatD
# Procedure, shortened: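 Recombinant Cat D expressed in CHO cells, assayed in 0.05 M citrate pH 3.5 with 5 mM CHAPS and 10% DMSO final. Reaction started with 20 nM FRET peptide substrate, incubated one hour, then stopped by Tris buffer to neutral pH; fluorescence read at ex 500/em 580 nm.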
# human recombinant BACE1 = human recombinant BACE1 (Homo sapiens (Human), UniProt P56817); assay: In vitro enzymatic BACE1 FRET assay; assay type: biochemical; settings: read-out: IC50 IP (μM) BACE1 enzyme
# Procedure, shortened: as §1
# Chain of human recombinant BACE1 (P56817 46-501): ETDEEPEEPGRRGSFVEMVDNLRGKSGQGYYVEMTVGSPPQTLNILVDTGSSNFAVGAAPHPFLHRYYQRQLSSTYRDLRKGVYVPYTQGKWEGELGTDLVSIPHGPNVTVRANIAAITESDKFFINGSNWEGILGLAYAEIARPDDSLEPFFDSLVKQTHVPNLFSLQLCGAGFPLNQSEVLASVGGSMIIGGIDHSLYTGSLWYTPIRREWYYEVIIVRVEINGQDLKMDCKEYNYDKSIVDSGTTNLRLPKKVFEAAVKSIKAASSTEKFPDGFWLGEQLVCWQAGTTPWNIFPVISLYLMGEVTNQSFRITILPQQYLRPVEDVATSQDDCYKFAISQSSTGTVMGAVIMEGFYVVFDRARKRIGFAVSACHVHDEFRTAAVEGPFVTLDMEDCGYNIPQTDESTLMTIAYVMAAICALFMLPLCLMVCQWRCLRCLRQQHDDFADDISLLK
# Chain of human recombinant BACE2 (Q9Y5Z0 63-518): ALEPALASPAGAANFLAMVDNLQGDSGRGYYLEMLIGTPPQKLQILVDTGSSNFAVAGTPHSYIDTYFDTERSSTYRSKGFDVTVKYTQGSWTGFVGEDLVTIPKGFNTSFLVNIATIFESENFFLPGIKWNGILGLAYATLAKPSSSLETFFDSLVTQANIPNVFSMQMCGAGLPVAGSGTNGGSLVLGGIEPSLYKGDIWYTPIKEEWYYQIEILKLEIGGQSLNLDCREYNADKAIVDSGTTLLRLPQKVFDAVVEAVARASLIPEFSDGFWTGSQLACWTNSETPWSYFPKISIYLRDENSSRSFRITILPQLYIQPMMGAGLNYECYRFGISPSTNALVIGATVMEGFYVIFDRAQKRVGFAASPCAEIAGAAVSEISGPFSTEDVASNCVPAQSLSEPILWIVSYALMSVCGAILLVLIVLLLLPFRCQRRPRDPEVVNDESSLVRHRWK
# Chain of Recombinant Cat D (P07339 65-412): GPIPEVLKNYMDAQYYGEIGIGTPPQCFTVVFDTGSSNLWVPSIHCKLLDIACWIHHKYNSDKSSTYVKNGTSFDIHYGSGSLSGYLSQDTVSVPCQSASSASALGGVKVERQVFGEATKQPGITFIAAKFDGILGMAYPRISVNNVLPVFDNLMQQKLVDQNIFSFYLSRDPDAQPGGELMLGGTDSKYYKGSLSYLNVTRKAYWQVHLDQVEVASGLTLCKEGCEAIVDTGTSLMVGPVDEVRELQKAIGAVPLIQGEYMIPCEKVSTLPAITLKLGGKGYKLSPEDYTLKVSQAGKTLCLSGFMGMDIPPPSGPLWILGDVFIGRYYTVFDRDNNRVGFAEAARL
Structure (SMILES),IC50 (human recombinant BACE2),IC50 [1],IC50 (Recombinant Cat D),IC50 (human recombinant BACE1),IC50 (human recombinant BACE2; BACE2 FRET enzyme assay),IC50 ([1]; BACE1 cell-based assay),IC50 (Recombinant Cat D; Cathepsin D FRET enzyme assay),IC50 (human recombinant BACE1; BACE1 FRET enzyme assay)
"C[C@]1(c2cc(Nc3ncnc4cc(C#N)cnc34)ccc2F)N=C(N)S[C@]2(CO)[C@H]1C2(F)F [Example 703, 4-((3-((1S,5S,6R)-3-amino-7,7-difluoro-1-(hydroxymethyl)-5-methyl-2-thia-4-azabicyclo[4.1.0]hept-3-en-5-yl)-4-fluorophenyl)amino)pyrido[3,2-d]pyrimidine-7-carbonitrile]",0.011 µM,0.0153 µM,340 µM,0.00594 µM,,,,
"C#C[C@H](C)Oc1cnc(C(=O)Nc2ccc(F)c([C@@]3(C)N=C(N)S[C@@]4(C(=O)NC(C)(C)CF)C[C@H]43)c2)cn1 [Example 1019, (1S,5S,6S)-3-amino-5-(5-(5-((S)-but-3-yn-2-yloxy)pyrazine-2-carboxamido)-2-fluorophenyl)-N-(1-fluoro-2-methylpropan-2-yl)-5-methyl-2-thia-4-azabicyclo[4.1.0]hept-3-ene-1-carboxamide]",0.073 µM,0.00109 µM,271 µM,0.000937 µM,,,,
"C#CCOc1cnc(C(=O)Nc2cc(F)c(F)c([C@@]3(C)N=C(N)S[C@@]4(S(C)(=O)=O)C[C@H]43)c2)cn1 [Example 744, N-(3-((1R,5S,6S)-3-amino-5-methyl-1-(methylsulfonyl)-2-thia-4-azabicyclo[4.1.0]hept-3-en-5-yl)-4,5-difluorophenyl)-5-(2-propyn-1-yloxy)-2-pyrazinecarboxamide]",0.0183 µM,0.000872 µM,46.5 µM,0.00029 µM,,,,
"Cc1ncoc1[C@]12C[C@H]1[C@@](CF)(c1cc(NC(=O)c3ccc(Cl)cn3)ccc1F)N=C(N)S2 [Example 787, N-(3-((1S,5S,6S)-3-amino-5-(fluoromethyl)-1-(4-methyl-1,3-oxazol-5-yl)-2-thia-4-azabicyclo[4.1.0]hept-3-en-5-yl)-4-fluorophenyl)-5-chloro-2-pyridinecarboxamide]",< 0.00203 µM,0.0139 µM,1230 µM,0.000847 µM,,,,
"N#Cc1cnc2c(Nc3cc(F)c(F)c([C@@]4(CF)N=C(N)S[C@]5(CO)C[C@@H]54)c3)nccc2c1 [Example 57, 8-((3-((1R,5S,6R)-3-amino-5-(fluoromethyl)-1-(hydroxymethyl)-2-thia-4-azabicyclo[4.1.0]hept-3-en-5-yl)-4,5-difluorophenyl)amino)-1,7-naphthyridine-3-carbonitrile]",,,,,0.0235 µM,0.0225 µM,29.5 µM,0.00563 µM
"C[C@]1(c2cc(Nc3nccc4cc(C#N)cnc34)cnc2F)N=C(N)S[C@H]2C[C@H]21 [Example 641, 8-((5-((1S,5S,6S)-3-amino-5-methyl-2-thia-4-azabicyclo[4.1.0]hept-3-en-5-yl)-6-fluoro-3-pyridinyl)amino)-1,7-naphthyridine-3-carbonitrile]",0.00815 µM,0.00799 µM,1430 µM,0.0188 µM,,,,
"COC[C@]12C[C@H]1[C@@](C)(c1cc(NC(=O)c3cnc(OCc4nc(C)no4)cn3)ccc1F)N=C(N)S2 [Example 1008, N-(3-((1S,5S,6S)-3-amino-1-(methoxymethyl)-5-methyl-2-thia-4-azabicyclo[4.1.0]hept-3-en-5-yl)-4-fluorophenyl)-5-((3-methyl-1,2,4-oxadiazol-5-yl)methoxy)-2-pyrazinecarboxamide]",0.195 µM,0.0022 µM,> 400 µM,0.00471 µM,,,,
"C#CCCOc1cnc(C(=O)Nc2cc(F)c(F)c([C@@]3(C)N=C(N)S[C@@]4(COC)C[C@H]43)c2)cn1 [Example 1060, N-(3-((1S,5S,6S)-3-amino-1-(methoxymethyl)-5-methyl-2-thia-4-azabicyclo[4.1.0]hept-3-en-5-yl)-4,5-difluorophenyl)-5-(3-butyn-1-yloxy)-2-pyrazinecarboxamide]",0.13 µM,0.0076 µM,> 400 µM,0.0074 µM,,,,
"C#CCOc1cnc(C(=O)Nc2cnc(F)c([C@@]3(C)N=C(N)S[C@@]4(CF)C[C@H]43)c2)cn1 [Example 606, N-(5-((1S,5S,6S)-3-amino-1-(fluoromethyl)-5-methyl-2-thia-4-azabicyclo[4.1.0]hept-3-en-5-yl)-6-fluoropyridin-3-yl)-5-(prop-2-yn-1-yloxy)pyrazine-2-carboxamide]",0.00931 µM,0.000849 µM,278 µM,0.00032 µM,,,,
"C#CCOc1cnc(C(=O)Nc2ccc(F)c([C@@]3(CF)N=C(N)S[C@@]4(COC(C)C)C[C@H]43)c2)cn1 [Example 955, N-(3-((1S,5S,6S)-3-amino-5-(fluoromethyl)-1-((1-methylethoxy)methyl)-2-thia-4-azabicyclo[4.1.0]hept-3-en-5-yl)-4-fluorophenyl)-5-(2-propyn-1-yloxy)-2-pyrazinecarboxamide]",0.0501 µM,0.00178 µM,48 µM,0.000805 µM,,,,
"C#CCOc1cnc(C(=O)Nc2ccc(F)c([C@@]3(C)N=C(N)S[C@@]4(C(=O)NC(C)(C)C)C[C@H]43)c2)cn1 [Example 798, (1S,5S,6S)-3-amino-N-tert-butyl-5-(2-fluoro-5-(((5-(2-propyn-1-yloxy)-2-pyrazinyl)carbonyl)amino)phenyl)-5-methyl-2-thia-4-azabicyclo[4.1.0]hept-3-ene-1-carboxamide]",0.0272 µM,0.000715 µM,4.72 µM,0.000294 µM,,,,
"C#CCOc1cnc2c(Nc3cnc(F)c([C@@]4(C)N=C(N)S[C@]5(CO)[C@H]4C5(F)F)c3)nccc2n1 [Example 661, ((1S,5S,6R)-3-amino-7,7-difluoro-5-(2-fluoro-5-((2-(2-propyn-1-yloxy)pyrido[3,4-b]pyrazin-5-yl)amino)-3-pyridinyl)-5-methyl-2-thia-4-azabicyclo[4.1.0]hept-3-en-1-yl)methanol]",0.00392 µM,0.00244 µM,795 µM,0.000765 µM,,,,

# Now from value to molecule:
IC50 (human recombinant BACE2),IC50 [1],IC50 (Recombinant Cat D),IC50 (human recombinant BACE1),IC50 (human recombinant BACE2; BACE2 FRET enzyme assay),IC50 ([1]; BACE1 cell-based assay),IC50 (Recombinant Cat D; Cathepsin D FRET enzyme assay),IC50 (human recombinant BACE1; BACE1 FRET enzyme assay),Structure (SMILES)
0.00948 µM,0.00305 µM,306 µM,0.0016 µM,,,,,"C#CCOc1cnc2c(Nc3cnc(F)c([C@@]4(C)N=C(N)S[C@@]5([C@@H](OC)C(F)(F)F)C[C@H]54)c3)nccc2n1 [Example 677, N-(5-((1S,5S,6S)-3-amino-5-methyl-1-((1S)-2,2,2-trifluoro-1-methoxyethyl)-2-thia-4-azabicyclo[4.1.0]hept-3-en-5-yl)-6-fluoro-3-pyridinyl)-2-(2-propyn-1-yloxy)pyrido[3,4-b]pyrazin-5-amine]"
0.00399 µM,0.00974 µM,84.2 µM,0.000515 µM,,,,,"C#CCOc1cnc2c(Nc3cc(F)c(F)c([C@@]4(C)N=C(N)S[C@@]5(C#N)C[C@H]54)c3)nccc2n1 [Example 916, (1S,5S,6S)-3-amino-5-(2,3-difluoro-5-((2-(2-propyn-1-yloxy)pyrido[3,4-b]pyrazin-5-yl)amino)phenyl)-5-methyl-2-thia-4-azabicyclo[4.1.0]hept-3-ene-1-carbonitrile]"
,,,,0.0885 µM,0.14 µM,295 µM,0.0289 µM,"COc1cnc2c(Nc3cc(F)c(F)c([C@@]4(CF)N=C(N)S[C@H]5C[C@H]54)c3)nccc2n1 [Example 62, N-(3-((1S,5S,6S)-3-amino-5-(fluoromethyl)-2-thia-4-azabicyclo[4.1.0]hept-3-en-5-yl)-4,5-difluorophenyl)-2-methoxypyrido[3,4-b]pyrazin-5-amine]"
0.0352 µM,0.0272 µM,295 µM,0.00296 µM,,,,,"C[C@]1(c2cc(Nc3nccc4nc(OCc5cscn5)cnc34)cc(F)c2F)N=C(N)S[C@@]2(C(F)F)C[C@@H]12 [Example 875, N-(3-((1S,5S,6S)-3-amino-1-(difluoromethyl)-5-methyl-2-thia-4-azabicyclo[4.1.0]hept-3-en-5-yl)-4,5-difluorophenyl)-2-(1,3-thiazol-4-ylmethoxy)pyrido[3,4-b]pyrazin-5-amine]"
0.338 µM,0.0294 µM,343 µM,0.011 µM,,,,,"Cc1nnc(COc2cnc3c(Nc4cc(F)c(F)c([C@@]5(C)N=C(N)S[C@@]6(C(F)F)C[C@@H]56)c4)nccc3n2)o1 [Example 877, N-(3-((1S,5S,6S)-3-amino-1-(difluoromethyl)-5-methyl-2-thia-4-azabicyclo[4.1.0]hept-3-en-5-yl)-4,5-difluorophenyl)-2-((5-methyl-1,3,4-oxadiazol-2-yl)methoxy)pyrido[3,4-b]pyrazin-5-amine]"
0.0389 µM,0.000733 µM,86.9 µM,0.000861 µM,,,,,"C[C@]1(c2cc(Nc3ncnc4cc(OCc5ncco5)cnc34)cc(F)c2F)N=C(N)S[C@@]2(C(N)=O)C[C@H]21 [Example 918, (1S,5S,6S)-3-amino-5-(2,3-difluoro-5-((7-(1,3-oxazol-2-ylmethoxy)pyrido[3,2-d]pyrimidin-4-yl)amino)phenyl)-5-methyl-2-thia-4-azabicyclo[4.1.0]hept-3-ene-1-carboxamide]"
